Measurements: patent publication US20060058320A1, “[1,2,4] Triazolo[1,5-c]pyrimidine derivatives” (KYOWA HAKKO KOGYO CO., LTD., priority 2002, published 2006)
Structures can show the parent of a compound that is named as a salt. Where two headings read alike, the source gives them in different places.

Tests used:
[1] = test system: CGS 21680-induced catalepsy; assay: Activity on CGS 21680-induced catalepsy; format: in vivo, mice; conditions: for inhibition in vivo at 10 mg/kg: Mus musculus, po, read-out: Remission ratio (%); for Total score: total catalepsy score of 10 mice (maximum 50 points; 40 points or less = positive), one hour after administration; for Number of animals showing remission: cases with catalepsy score of 4 points or less in 10 cases
Experimental: Parkinson's disease is a motor disorder based on degeneration and cell death of the nigrostriatal dopaminergic neurons. When CGS 21680 (adenosine A2A receptor agonist) is administered into the intracerebral ventricle, the inhibitory synaptic transmission of GABA in the medium sized spiny neurons in the corpus striatum is inhibited directly via the adenosine A2A receptor [Journal of Neuroscience, vol. 16, p. 605 (1996)]. Accordingly, it is concidered that the adenosine A2A receptor agonists positively regulate the output of the GABAergic neurons from the corpus striatum to the globus pallidus lateralis, and, as a result, catalepsy is induced by the administration of CGS 21680.
The test was carried out using ten 5-week age male ddY mice (22-25 g in body weight, Japan SLC) per group. CGS 21680 (produced by RBI Co) was dissolved in physiological saline (produced by Otsuka Pharmaceutical Co., Ltd.), and 10 μg/20 μL of the solution was injected into mouse intracerebral ventricle. Each test compound was used by suspending it in distilled water containing 0.3% of polyoxylene (20) sorbitan monooleate (referred to as “Tween 80” hereinafter) (produced by Otsuka Pharmaceutical Co., Ltd.). The suspension containing each test compound or a solution containing no test Compound (distilled water containing 0.3% of Tween 80; used as a control) was orally administered (0.1 mL per 10 g of mouse body weight) 30 minutes before the injection of CGS 21680 into the intracerebral ventricle. One hour after the administration of the each test compound, only forelimbs or only hindlimbs of each mouse were laid on a vertically arranged stand made of acryl and having a size of 4.5 cm in height and 1.0 cm in width to measure catalepsy symptoms. All of the test compounds were administered orally in a dose of 10 mg/kg.
The criteria of the catalepsy score are shown below.
The effect was decided by a total catalepsy score of 10 mice in one group (the maximum score: 50 points). When the total score was 40 points or less, the activity of the compounds was decided positive. The number of the animals showing remission of catalepsy was expressed by the number of cases showing a catalepsy score of 4 points or less in 10 cases. The catalepsy remission ratio was expressed as the percentage of the total score in the test compound-administered group to the total score in the control group.

adenosine A2A receptor = molecular target: T1, adenosine A2A receptor (Rattus norvegicus, UniProt P30543); assay: Adenosine A2A receptor binding test (3H-CGS 21680 binding); conditions: for inhibition at 0.1 µM: read-out: A2A Receptor inhibition rate (%) at 10^−7 mol/L
T1 construct: from tissue; host or cells: rat corpus striatum membrane preparation
Experimental: The test was carried out according to the method of Bruns et al. [Molecular Pharmacology, vol. 29, p.
Rat corpus striatum was suspended in an ice-cold 50 mmol/L tris(hydroxymethyl)aminomethane hydrochloride (referred to as “Tris HCl” hereinafter) buffer (pH 7.7) using a Polytron homogenizer (produced by Kinematica Co.). The suspension was centrifuged (50,000×g, 10 minutes), and the resulting precipitate was again suspended in the same amount of a 50 mmol/L Tris HCl buffer, followed by centrifugation under the same conditions. The resulting finalprecipitate was again suspended in a 50 mmol/L-Tris HCl buffer [containing 10 mmol/L of magnesium chloride and 0.02 unit/mg tissue of adenosine deaminase (produced by Sigma Co.)] so that the tissue concentration was 5 mg (wet weight)/mL.
The radioactivity on the filter was determined with a liquid scintillation counter (produced by Packard Instrument Co.).
In the equation, X represents Amount of binding in the presence of a medicament, Y represents Amount of nonspecific binding, and Z represents Amount of total binding.

[2] = from total score of test group and control group, 10 mg/kg orally
[3] = test compound 10^−7 mol/L, 3H-CGS 21680 binding, rat corpus striatum

T1 sequence (P30543 whole entry): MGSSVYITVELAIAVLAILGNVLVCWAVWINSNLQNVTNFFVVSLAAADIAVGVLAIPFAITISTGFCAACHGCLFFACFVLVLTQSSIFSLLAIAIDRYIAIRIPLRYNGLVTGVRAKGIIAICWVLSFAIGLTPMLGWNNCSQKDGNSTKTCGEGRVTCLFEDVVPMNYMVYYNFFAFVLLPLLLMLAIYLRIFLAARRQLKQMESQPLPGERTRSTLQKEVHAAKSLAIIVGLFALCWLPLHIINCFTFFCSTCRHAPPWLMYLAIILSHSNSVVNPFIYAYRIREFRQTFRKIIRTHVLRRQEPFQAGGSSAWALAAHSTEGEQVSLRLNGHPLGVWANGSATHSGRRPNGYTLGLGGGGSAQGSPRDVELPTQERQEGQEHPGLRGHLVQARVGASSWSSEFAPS

SMILES | A2A Receptor inhibition rate (%) at 10^−7 mol/L (adenosine A2A receptor; [3]) | inhibition at 0.1 µM (adenosine A2A receptor; [3]) | inhibition in vivo at 10 mg/kg [1] | Total score ([1]; 10 mg/kg orally) | inhibition at 0.1 µM (adenosine A2A receptor) | Number of animals showing remission ([1]; 10 mg/kg orally) | Remission ratio (%) [1, 2] | inhibition in vivo at 10 mg/kg [1, 2]
COCCN1CC=C(c2cc3nc(-c4ccco4)nn3c(N)n2)CC1 [Compound 73, 5-Amino-2-(2-furyl)-7-[1-(2-methoxyethyl)-1,2,3,6-tetra-hydropyridin-4-yl][1,2,4]triazolo[1,5-c]pyrimidine] |  |  | 88% | 6 | 98% |  |  | 
CN(Cc1ccc2c(c1)OCO2)C(=O)c1cc2nc(-c3ccco3)nn2c(N)n1 [Compound 107, 5-Amino-2-(2-furyl)[1,2,4]triazolo[1,5-c]pyrimidine-7-carboxylic acid [N-(1,3-benzodioxol-5-ylmethyl)-N-methyl]amide monohydrochloride] |  | 71% |  | 5 |  |  |  | 90%
COCCN1CCN(Cc2cc3nc(-c4ccco4)nn3c(N)n2)CC1 [Compound 49, 5-Amino-2-(2-furyl)-7-[4-(2-methoxyethyl)piperazin-1-yl-methyl][1,2,4]triazolo[1,5-c]pyrimidine dihydrochloride] |  | 89% | 92% | 4 |  |  |  | 
Nc1nc(C(=O)N2CCC3CCCCC3C2)cc2nc(-c3ccco3)nn12 (stereo not drawn) [Compound 151, 5-Amino-2-(2-furyl)[1,2,4]triazolo[1,5-c]pyrimidin-7-yl cis-decahydroisoquinolyl ketone] | 71% |  |  | 12 |  | 8 | 74% | 
CC(C)N(Cc1ccn(C)c1)C(=O)c1cc2nc(-c3ccco3)nn2c(N)n1 [Compound 116, 5-Amino-2-(2-furyl)[1,2,4]triazolo[1,5-c]pyrimidine-7-carboxylic acid [N-isopropyl-N-(1-methylpyrrol-3-ylmethyl)]amide] | 62% |  |  | 9 |  | 9 | 82% | 
CC1CCN(C(=O)c2cc3nc(-c4ccco4)nn3c(N)n2)CC1 [Compound 143, 5-Amino-2-(2-furyl)[1,2,4]triazolo[1,5-c]pyrimidin-7-yl 4-methylpiperidino ketone] |  | 70% |  | 5 |  |  |  | 90%

More lines, main results first:

A2A Receptor inhibition rate (%) at 10^−7 mol/L (adenosine A2A receptor; [3]) | inhibition at 0.1 µM (adenosine A2A receptor; [3]) | SMILES | inhibition in vivo at 10 mg/kg [1] | Total score ([1]; 10 mg/kg orally) | inhibition at 0.1 µM (adenosine A2A receptor) | Number of animals showing remission ([1]; 10 mg/kg orally) | Remission ratio (%) [1, 2] | inhibition in vivo at 10 mg/kg [1, 2]
56% |  | Nc1nc(C(=O)N2CCCCCC2)cc2nc(-c3ccco3)nn12 [Compound 154, 5-Amino-2-(2-furyl)[1,2,4]triazolo[1,5-c]pyrimidin-7-yl perhydroazepinyl ketone] |  | 16 |  | 7 | 66% | 
 | 78% | Nc1nc(C#CC2(O)CCCC2)cc2nc(-c3ccco3)nn12 [Compound 69, 5-Amino-2-(2-furyl)-7-[2-(1-hydroxycyclopentyl)ethynyl][1,2,4]triazolo[1,5-c]pyrimidine] |  | 2 |  |  |  | 96%
 | 70% | Nc1nc(-c2cc3nc(-c4ccco4)nn3c(N)n2)cs1 [Compound 58, 5-Amino-7-(2-aminothiazol-4-yl)-2-(2-furyl)-[1,2,4]triazolo-[1,5-c]pyrimidine] |  | 10 |  |  |  | 80%
 | 65% | COc1ccc(CN(C)C(=O)c2cc3nc(-c4ccco4)nn3c(N)n2)cc1 [Compound 108, 5-Amino-2-(2-furyl)[1,2,4]triazolo[1,5-c]pyrimidine-7-caroboxylic acid [N-(4-methoxybenzyl)-N-methyl]amide monohydrochloride] |  | 2 |  |  |  | 96%
 | 66% | CN(Cc1ccnc2ccccc12)C(=O)c1cc2nc(-c3ccco3)nn2c(N)n1 [Compound 113, 5-Amino-2-(2-furyl)[1,2,4]triazolo[1,5-c]pyrimidine-7-carboxylic acid [N-methyl-N-(4-quinolylmethyl)]amide] |  | 12 |  |  |  | 76%
